Results: patent US12558367B2, “Nicotinamide riboside and derivatives thereof in intravenous formulations and methods of use thereof” (ChromaDex Inc., priority 2023, dated 2026)
Entries after “also recorded” stand apart in the source; their conditions may differ.

Columns and labels:
blood NAD+ = conditions: cited from earlier work
[1] = Sleep Scale, pilot clinical study (Study 1); type: in vivo, human; conditions: for Sleep Maintenance: possible scores 3-18; for Sleep Latency: possible scores 4-24; for Cognitive Effects / Daytime Sleepiness / Emotional Effects / Productivity / Sleep Inertia: possible scores 5-30
Protocol: (§1) The present randomized, double-blinded, placebo-controlled, pilot clinical study was initiated with the primary aim of investigating the safety, tolerability, and the blood NAD+-boosting efficacy of an acute, single dose of NR IV (500 mg, test), NAD+ IV (500 mg, active comparator), oral NR (500 mg, bridge), and saline IV (placebo control) in generally healthy adult participants. The study consisted of two parts; data from 37 and 16 participants in the first and second phases, respectively, were analyzed.
(§2) This was a 2-part study. The first study was a 4-arm randomized, placebo-controlled parallel trial. The 3 IV arms were double-blinded, while the 4th arm involved oral administration making it naturally unblinded. Participants were randomized at a 10:10:10:6 ratio to intravenous placebo (saline), NAD^+, NR, or oral NR (oral). The second study was a randomized parallel design trial with two arms for the purpose of evaluating the actual differences in infusion rates in real time. Participants were randomized at a 1:1 ratio to intravenous NR or NAD^+.
(§3) Vials of 50 mg/ml of NR or NAD+ were prepared in 10 ml of sterile water by DCA Pharmacy (Franklin, Tennessee) by prescription, for research administration only, and maintained in refrigerated conditions until use. For participants who were randomized to the test group or to the active comparator group, the NR or NAD+ was added to 500 ml of normal saline (B Braun 0.9% sodium chloride injection USP, preservative free) prior to intravenous administration. Those randomly assigned to the saline group received 500 ml of normal saline. Participants that were randomly assigned to the oral arm were provided with 500 mg of NR which was taken with water.
(§4) To assess vital signs and subdomains on the sleep and energy scales, between-groups comparisons were assessed using analysis of covariance (ANCOVA) with baseline scores as the covariate and a Bonferroni correction. Levene's test was used to check and confirm the assumption of homogeneity of variances.
(§5) Tables A-D below reflect mean scores for each group at days 7 and 14. An ANCOVA was used to identify statistical significant differences, using baseline scores as the covariate which helps to account for the natural variation in psychological measurements, increasing the power of the study.
For the sleep scale, the greatest improvements were seen on the scale of sleep latency, which refers to the ability to fall asleep at night, and sleep-related cognitive effects.

[2] = Vital signs post-intervention (Study 1); type: in vivo, human; conditions: single 500 mg dose, mean (SD)
Protocol: as §1
(§6) The safety of the IV infusion was evaluated using a combination of endpoints, including tolerable infusion rate, total number of adverse effects, participant vital signs, a complete blood count (CBC), a comprehensive metabolic panel (CMP), glucose and insulin levels, and the participant's self-reported subjective experience.
as §4
For the first study, data from 37 patients were available for intent to treat analysis; for the second study, data from 16 patients were available for intent to treat analysis.

whole blood NAD+ = assay: NAD+ analysis of dried blood spots (DBS) by LC/MS; type: in vivo, human; parameters: Mean NAD: unit not given here; conditions: for Mean NAD: dried blood spot
Protocol: Finger punctures were conducted using a lancet. Blood was then applied to the circles on the dried blood spot (DBS) card and allowed to dry for a minimum of 3 hours. […] See, for example, FIG. 3. The use of dried blood spots (DBS) allowed for the analysis of NAD+ levels based upon samples that could be prepared at the clinic or by the study participants from home. While 36 of 37 participants in study 1 utilized the DBS at all time points, not all samples were analyzable. […] However, the model was significant for the 3-hour timepoint (p=0.010; […] At 6 hours, near-significant differences were observed between the NAD+ and NR IV group (t=1.99, p=0.055), and significant differences were observed between the NR IV and saline groups (t=−2.80, p=0.009), and between the NR IV and oral NR groups (t=−2.59, p=0.015). See, Tables 3-9 below. Tables 3-9 below reflect mean/SD for each group at each of the 7 timepoints. A basic ANOVA was conducted to investigate the data.

[3] = Clinical chemistry (comprehensive metabolic panel); type: in vivo, human
Protocol: as §6
(§7) Between-groups comparisons of each outcome measured in the […] and CMP were evaluated using mixed between-within subjects ANOVA with the timepoint being the within subjects' factor and the group assignment as the between subjects factor. Mauchly's test of sphericity was used to confirm assumptions. Violations of the assumption of sphericity are addressed with the Greenhouse-Geisser correction.
(§8) Additional analyses were conducted using GraphPad Prism (Ver. 10.0.2). Statistical significance was determined as p<0.05, with comparisons of the test articles compared to saline or between group comparisons. 2way ANOVA with Tukey's multiple comparisons test with a single pooled variance was used to determine significance in hematology, clinical chemistry, and vitals. Time in chair was analyzed for study 1 by a one-way ANOVA with multiple comparisons, study 2 was analyzed by unpaired t-test. The baseline variable of age was analyzed for differences by one way ANOVA with multiple comparisons for study.

[4] = Patient subjective experience and adverse event monitoring; type: in vivo, human
Protocol: as §6
Adverse event monitoring began on the first day of the study and continued for 14 days (study one) or 7 days (study two). Participants were instructed to notify the research staff of any new or unusual symptoms during the trial and open-ended questions during data collection solicited unexpected side effects.

[5] = Hematology (complete blood count); type: in vivo, human; conditions: for elevations in white blood cells and neutrophils: baseline to three-hours post-infusion; for mean corpuscular volume (MCV): in fL (unit assumed)
Protocol: as §6, §7, §8

[6] = Energy/Fatigue Scale, randomized placebo-controlled pilot clinical study (Study 1); type: in vivo, human; conditions: for Mental Energy / Perceived Fatigue: possible scores 5-30; for General Energy / Motivation: possible scores 6-36; for Physical Energy: possible scores 7-42; for Emotional Energy: possible scores 8-48
Protocol: as §1, §2, §3, §4, §5
It is noted that the energy scale measures disruptions to energy levels; lower scores reflect greater levels of energy.

[7] = Tolerable infusion rate / infusion duration, Study 2 (IV line fully open); type: in vivo, human; conditions: males, rate decreased on request, mean (SD)
Excerpt: as §2, with “NAD^+. […]” for “NAD^+.”
(§9) In the first study, participants began the infusion at a rate of 20 drops per minute for the first 15 minutes to ensure safety and comfort. […] Participants were closely monitored for the duration of the infusion, and the infusion rate was decreased, as applicable, upon participant request.
as §8, with “2way ANOVA with Tukey's multiple comparisons test with a single pooled variance was used to determine significance in hematology, clinical chemistry, and vitals.” left out

[8] = Tolerable infusion rate / infusion duration, Study 1; type: in vivo, human; conditions: 500 mg in 500 ml saline, start 20 drops per minute for 15 minutes, then rate by participant comfort, mean ± SD
Protocol: as §3, §9
as §8, with “2way ANOVA with Tukey's multiple comparisons test with a single pooled variance was used to determine significance in hematology, clinical chemistry, and vitals.” left out

[9] = Immediately Post-Intervention (10 minutes after infusion)
[10] = Energy/Fatigue Scale Day 7, mean score, lower = greater energy
[11] = Energy/Fatigue Scale Day 7, mean score, lower scores = greater energy, single 500 mg dose
[12] = Energy/Fatigue Scale Day 14, mean score, lower = greater energy
[13] = 3 hours post infusion, mean ± SD

NC(=O)c1ccc[n+]([C@@H]2O[C@H](COP(=O)([O-])O)[C@@H](O)[C@H]2O)c1 [NMN, Nicotinamide mononucleotide]
safety and tolerability (blood NAD+; 300 mg in 100 mL saline, 5 mL/min IV, 10 healthy Japanese adults (Kimura et al.)): safe and well-tolerated
blood NAD+ levels (blood NAD+; intravenous NMN (Kimura et al.)): elevated blood NAD+ levels at multiple timepoints relative to baseline

NC(=O)c1ccc[n+]([C@@H]2O[C@H](CO)[C@@H](O)[C@H]2O)c1.[Cl-] [oral NR, nicotinamide riboside chloride]
Sleep Maintenance ([1]; Sleep Scale Day 14, mean score): 7.50
Sleep Latency ([1]; Sleep Scale Day 14, mean score): 10.00
Cognitive Effects ([1]; Sleep Scale Day 14, mean score): 16.36
Daytime Sleepiness ([1]; Sleep Scale Day 14, mean score): 15.63
Emotional Effects ([1]; Sleep Scale Day 14, mean score): 20.50
Productivity ([1]; Sleep Scale Day 14, mean score): 12.88
Sleep Inertia ([1]; Sleep Scale Day 14, mean score): 15.88
Post-intervention diastolic blood pressure [2]: 71.00 (SD: 6.24) mmHg
Post-intervention heart rate [2]: 65.78 (SD: 7.95) beats per minute
Post-intervention systolic blood pressure [2]: 108.56 (SD: 9.08) mmHg
Mean NAD (whole blood NAD+; 3 Hours Post-Intervention): 18.54
Mean NAD (whole blood NAD+; 6 Hours Post-Intervention): 18.01
Mean NAD (whole blood NAD+; 24 Hours Post-Intervention): 23.25
Mean NAD (whole blood NAD+; Baseline Scores): 18.34
Mean NAD (whole blood NAD+; [9]): 19.16
clinically relevant changes in comprehensive metabolic panel or CBC with differential ([3]; Study 1): did not display any clinically relevant changes
safety / attributable adverse events ([4]; intervention and follow-up period up to 14 days): safe and well tolerated
elevations in white blood cells and neutrophils [5]: not observed
Mental Energy [6, 10]: 14.90
Perceived Fatigue [6, 10]: 14.10
General Energy [6, 10]: 23.20
Motivation [6, 10]: 12.20
Physical Energy [6, 11]: 19.80
Emotional Energy [6, 10]: 32.50
Mental Energy [6, 12]: 15.67
Perceived Fatigue [6, 12]: 16.44
General Energy [6, 12]: 23.67
Motivation [6, 12]: 12.56
Physical Energy [6, 12]: 20.00
Emotional Energy [6, 12]: 32.44

NC(=O)c1ccc[n+]([C@@H]2O[C@H](COP(=O)([O-])OP(=O)(O)OC[C@H]3O[C@@H](n4cnc5c(N)ncnc54)[C@H](O)[C@@H]3O)[C@@H](O)[C@H]2O)c1 [NAD+ IV, Nicotinamide Adenine Dinucleotide]
Sleep Maintenance ([1]; Sleep Scale Day 7, mean score): 8.88
Sleep Latency ([1]; Sleep Scale Day 7, mean score): 11.63
Cognitive Effects ([1]; Sleep Scale Day 7, mean score): 15.50
Daytime Sleepiness ([1]; Sleep Scale Day 7, mean score): 17.63
Emotional Effects ([1]; Sleep Scale Day 7, mean score): 15.75
Productivity ([1]; Sleep Scale Day 7, mean score): 13.86
Sleep Inertia ([1]; Sleep Scale Day 7, mean score): 17.38
Sleep Maintenance ([1]; Sleep Scale Day 14, mean score): 8.25
Sleep Latency ([1]; Sleep Scale Day 14, mean score): 10.75
Cognitive Effects ([1]; Sleep Scale Day 14, mean score): 15.63
Daytime Sleepiness ([1]; Sleep Scale Day 14, mean score): 16.88
Emotional Effects ([1]; Sleep Scale Day 14, mean score): 16.38
Productivity ([1]; Sleep Scale Day 14, mean score): 13.25
Sleep Inertia ([1]; Sleep Scale Day 14, mean score): 16.00
average infusion rate (total infusion time) [7]: 98.88 (SD: 46.70) minutes
Post-intervention diastolic blood pressure [2]: 73.40 (SD: 13.15) mmHg
Post-intervention heart rate [2]: 68.40 (SD: 8.10) beats per minute
Post-intervention systolic blood pressure [2]: 117.20 (SD: 14.54) mmHg
effect on whole blood NAD+ (whole blood NAD+; NR IV: at 3 hours relative to placebo and NAD+ IV, NAD+ IV: within 24 hours): did not significantly elevate
increase in whole blood NAD+ relative to baseline (whole blood NAD+; at 24 hours): 2%
Mean NAD (whole blood NAD+; 3 Hours Post-Intervention): 19.20
Mean NAD (whole blood NAD+; 6 Hours Post-Intervention): 18.88
Mean NAD (whole blood NAD+; 24 Hours Post-Intervention): 19.73
Mean NAD (whole blood NAD+; Baseline Scores): 19.27
Mean NAD (whole blood NAD+; [9]): 19.16
infusion intake, average [8]: 182.9 ± 55.93 min
significant differences in bilirubin and AST (indicators of liver function) ([3]; 3- and 24-hour timepoints): not detected
change in globulin from baseline to 24 hours post infusion ([3]; Study 1, mean ± SD): 0.1300±0.1829
estimated glomerular filtration rate change from baseline to 3 hours post infusion ([3]; Study 1, mean ± SD, not deemed clinically significant): 1.400±8.462
comfort level described by majority of patients ([4]; during IV infusion): low
patients having a bowel movement during the IV ([4]; fraction of patients, nursing staff report): Approximately half
sensations / adverse experiences reported during infusion ([4]; patient self-report, 500 mg IV): anxiety, headaches, nausea, and sudden urges to have a bowel movement or diarrhea; also recorded: nausea, headache, diarrhea, and muscle tightness
White blood cell count [5, 13]: 6.990±2.386 Thousand/microliter
absolute neutrophils [5, 13]: 4724±2159 Cells/microliter
mean corpuscular volume (MCV) [5, 13]: 87.38±3.991
mean corpuscular volume (MCV) ([5]; 24 hours post infusion, mean ± SD): 87.34±3.035
elevations in white blood cells and neutrophils [5]: clinically significant elevations in white blood cells and increases in absolute and percentage neutrophils
mean corpuscular volume (MCV) ([5]; baseline, mean ± SD): 88.43±3.772
Mental Energy [6, 10]: 13.13
Perceived Fatigue [6, 10]: 15.75
General Energy [6, 10]: 20.63
Motivation [6, 10]: 11.13
Physical Energy [6, 11]: 19.63
Emotional Energy [6, 10]: 31.75
Mental Energy [6, 12]: 14.50
Perceived Fatigue [6, 12]: 15.50
General Energy [6, 12]: 20.13
Motivation [6, 12]: 13.50
Physical Energy [6, 12]: 18.50
Emotional Energy [6, 12]: 29.63
